Laboratory results: article PMC5587642, “A Novel Benzocoumarin-Stilbene Hybrid as a DNA ligase I inhibitor with in vitro and in vivo anti-tumor activity in breast cancer models” (Scientific Reports, 2017)

What was measured:
FEN1 protein = target: T1, FEN1 protein (Homo sapiens, UniProt P39748); test: Flap cleavage assay; assay type: biochemical; conditions: compound 19 at 5, 10, 20 µM
T1 construct: His-tag (C); made in house; host or cells: E. coli BL21DE3
Description: Purification of FEN 1: Full length FEN1 DNA template was taken from pShuttle-FEN1hWT, a gift from Sheila Stewart (Addgene plasmid#35027) is subcloned into a pET41a expression vector containing C-terminal His-tag. pET41FEN1His freshly transformed into expression host BL21DE3 E. coli cells (Novagene), single colonies picked and inoculated in 5ml of LB media containing 50μg/ml of Kanamycin, grown for 3 to 4 hrs and further subcultured in 100 ml of LB medium containing 50μg/ml of Kanamycin and grown at 37°C till the OD reached to 0.6-0.7, induced at 0.5 mM IPTG at 16°C for 18hrs. Pellets were collected and lysed in 20 mM tris 150 mM NaCl (Lysis buffer) containing 1mM PMSF and 1mM benzamidine hydrochloride and purified by Ni-NTA affinity chromatography.
Flap cleavage assay: All oligos were purchased from Integrated DNA Technologies and dissolved in nuclase free water at concentration of 100μM. FAM-labeled 25+6 Flap-mer (5’-[…]-3’*6FAM)) was annealed with 52- mer (5’-[…]-3’) and 27-mer (5’-[…]-3’) to form a complementary double strand flap cleavage substrate. […] The cleaved and uncleaved DNA molecules are separated on 15% Urea gel and bands were detected by Image Quant LAS 4010 (GE Healthcare).

[1] = Metabolic stability in rat liver microsomes; assay type: in vitro ADME
Description: Major drug clearance in the body occurs due to its metabolism in the liver. Metabolic stability in rat liver microsomes (RLM) was conducted in triplicate. Compound 19 (5 µM) was incubated in reaction milieu which contains RLM (0.5 mg/ml), MgCl2 (10 mM), NADPH (10 mM) in a 1.5 ml phosphate buffer solution (pH 7.4). Reaction was started by the addition of NADPH and kept in a shaking water bath at 37 °C. Organic content in reaction mixture was kept less than 1%. Time points at which samples were withdrawn were 0, 5, 15, 30, 45, 60 min. Testosterone was used as control to know the RLM enzyme activity. Control reaction without NADPH was performed to explore any chemical instability or non-cofactor dependent enzymatic degradation. At each time point 150 µL aliquots were withdrawn and added in 150 µL ACN, […] at 10,000 g for 5 minutes, 100 µL samples was pipetted out & analyzed in HPLC-PDA.

MDA-MB-231 cells = test: Clonogenic survival assay; assay type: cell-based, human; conditions: 0.75, 1.5 and 3 µM; 24 and 48 h treatment
Description: Clonogenic survival assay was performed as described previously[16] with modifications. MDA-MB-231 cells (100 cells) were seeded in 12 well plates for 24 h. Cells were then treated with different concentrations of compound 19 (0.75, 1.5 and 3 µM) for 24 and 48 h. After drug treatment, culture medium was replaced with fresh medium and cells were cultured for another 10 days. After 10 days, the cells were washed with PBS carefully and stained with a solution containing 6% glutaraldehyde and 0.5% crystal violet.

[2] = target: T2, DNA ligation (hLigI) in MDA-MB-231 cell lysate (Homo sapiens, UniProt P18858); test: Ex-vivo ligation assay with lysate of treated cells; assay type: cell-based; conditions: MDA-MB-231, treated 48 h
T2 construct: endogenous in cells; host or cells: MDA-MB-231
Description: (§1) Cells (MDA-MB-231) were seeded in 6 well plates and treated either with vehicle control (DMSO) or with different concentrations (6 and 12 µM) of compound 19 for 48 h. After the treatment cell lysate was prepared and western blotting was performed as described previously. Briefly, the cells were lysed by very brief sonication. Sonicated samples were centrifuged and the supernatant was collected and used for ligation assay and western blotting.
(§2) The MDA-MB-231 and 4T1 cells were treated with different concentrations of compound 19 for 48h. Cell lysate were prepared as described previously ^6 for the ligation assay. Here we used same DNA substrate which was used in FEN1 flap cleavage assay so that we can check the activity of hLigI and FEN1 proteins in compound 19 treated samples. The reactions were performed as described previously ^6. In the Supplementary Fig. 74 cleaved product remain (25 mer) same. This cleaved product occurs after the cleavage of 25+6 mer oligo by FEN1 protein, since the cleaved product (25 mer) remains same in treated as well as in control samples we can conclude that the compound 19 unable to inhibit the FEN1 protein inside the cells. The cleaved product (25 mer) make a double strand nicked substrate for hLig I protein with 27 mer and 52 mer oligo used in the reaction. hLigI protein gives rise to ligated (52 mer oligo) product after the completion of reaction. […]

hLigI and DNA complex = target: T3, hLigI and DNA complex (Homo sapiens, UniProt P18858); test: Electrophoretic mobility shift assay (EMSA); assay type: binding; conditions: 120, 250, 500 µM
T3 construct: made in house
Description: EMSA was performed as described previously. Briefly, in 20 μl reaction volume 2 pmol non-ligatable nicked DNA substrate was incubated with DMSO (vehicle control) or with different concentrations (120, 250, 500 µM) of compound 19 incubated with 10 pmol of hligI in ligation buffer. After the incubation, samples were separated by 6.5% native PAGE and bands were detected and imaged by Image Quant LAS 4010 (GE Life sciences).

[3] = target: T4, flap cleavage activity (FEN1) in MDA-MB-231 cell lysate (Homo sapiens, UniProt P39748); test: Ex-vivo flap cleavage with lysate of treated cells; assay type: cell-based; conditions: MDA-MB-231, treated 48 h
T4 construct: endogenous in cells; host or cells: MDA-MB-231
Description: as §1, §2

T1 sequence (P39748 whole entry): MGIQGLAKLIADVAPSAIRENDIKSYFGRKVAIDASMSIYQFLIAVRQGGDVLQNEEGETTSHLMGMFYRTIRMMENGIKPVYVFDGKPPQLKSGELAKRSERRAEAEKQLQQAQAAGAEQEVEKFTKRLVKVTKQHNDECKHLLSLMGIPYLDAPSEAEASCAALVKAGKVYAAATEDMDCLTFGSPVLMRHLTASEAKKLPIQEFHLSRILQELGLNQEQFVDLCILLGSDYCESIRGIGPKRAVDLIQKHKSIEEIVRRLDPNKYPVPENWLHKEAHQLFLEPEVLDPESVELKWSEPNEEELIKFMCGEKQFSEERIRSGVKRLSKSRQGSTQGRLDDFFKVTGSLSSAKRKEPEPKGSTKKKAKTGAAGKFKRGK
T4 sequence (P39748 whole entry): as above
T3 sequence (P18858 whole entry, one chain of several): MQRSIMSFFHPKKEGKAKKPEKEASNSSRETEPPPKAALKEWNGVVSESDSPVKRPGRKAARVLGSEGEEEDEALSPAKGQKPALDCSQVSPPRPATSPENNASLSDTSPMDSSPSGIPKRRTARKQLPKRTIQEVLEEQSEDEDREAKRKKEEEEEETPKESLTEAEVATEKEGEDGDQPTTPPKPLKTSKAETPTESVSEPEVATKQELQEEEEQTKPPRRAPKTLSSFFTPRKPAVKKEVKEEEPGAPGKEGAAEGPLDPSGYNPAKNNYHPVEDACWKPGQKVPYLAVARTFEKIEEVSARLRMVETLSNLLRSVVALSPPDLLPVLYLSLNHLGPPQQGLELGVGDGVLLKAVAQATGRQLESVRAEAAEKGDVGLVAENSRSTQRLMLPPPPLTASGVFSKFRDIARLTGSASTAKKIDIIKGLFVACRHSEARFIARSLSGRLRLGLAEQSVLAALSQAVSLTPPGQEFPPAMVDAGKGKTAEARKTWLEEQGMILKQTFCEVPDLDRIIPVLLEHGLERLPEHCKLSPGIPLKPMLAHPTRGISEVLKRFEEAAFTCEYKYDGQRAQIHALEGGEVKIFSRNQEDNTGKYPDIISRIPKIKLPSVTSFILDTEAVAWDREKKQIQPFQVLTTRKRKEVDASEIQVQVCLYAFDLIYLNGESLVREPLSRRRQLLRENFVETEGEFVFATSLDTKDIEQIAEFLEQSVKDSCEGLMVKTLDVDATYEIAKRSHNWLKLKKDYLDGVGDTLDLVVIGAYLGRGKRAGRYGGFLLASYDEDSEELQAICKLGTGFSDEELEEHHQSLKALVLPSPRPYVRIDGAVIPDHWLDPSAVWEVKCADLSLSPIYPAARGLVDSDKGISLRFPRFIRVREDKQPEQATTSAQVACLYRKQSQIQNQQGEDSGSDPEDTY
T2 sequence (P18858 whole entry): as the sequence (P18858 whole entry, one chain of several) above

COc1cc(/C=C/c2cc(=O)oc3c2ccc2ccccc23)cc(OC)c1 [Compound 19, (E)-4-(3,5-dimethoxystyryl)-2H-benzo[h]chromen-2-one]
Inhibition of FEN1 flap cleavage activity (FEN1 protein): not able to inhibit
Microsomal metabolic stability ([1]; 5 µM, RLM 0.5 mg/ml, NADPH, up to 60 min): 55.5 ± 4.77%
Stability in control reaction in the absence of cofactor ([1]; RLM without NADPH): stable
Colony forming ability (MDA-MB-231 cells): inhibited colony forming ability of cells
DNA ligation capacity of lysate of treated cells [2]: reduced capacity for DNA ligation
hLigI and DNA complex formation (EMSA) (hLigI and DNA complex): decreased the hLigI and DNA complex formation
Flap cleavage activity of lysate of treated cells [3]: remained unaffected
